Key:
[1] = test system: HepG2 (liver cancer) cells; experiment: Real-time PCR Diabetes Array; assay type: cell-based; details: 100 μM Q10
Method: The treatment was initiated on 1×10^5 cells per well, following the procedure utilized in the PaCa2 cells (above, Examples 9-11). However, the total amount of RNA that was extracted from these samples was lower than expected. Reverse transcription is normally done using 1 μg of total RNA (determined by measurement at 260 nm). The maximum volume that can be used per reverse transcription is 8 μl.

[2] = test system: Isocitrate Dehydrogenase-1 (IDH-1); experiment: Western blot, IDH1 levels; assay type: cell-based, human
Method: (§1) The whole cell pellets were resuspended one at a time in 1 mL of C7 buffer and transferred to labeled 15 mL tubes. The samples were then sonicated in the cold room on ice using 6 sonic pulses with the setting at #14. The samples were spun for a short time to 2500 g after sonication and the samples transferred to 2 ml tubes. The pH was verified of each sample (pH should be 9.0) using the foam remaining in the […] sample tubes.
Alkylation and reduction of samples was performed for each sample by adding 10 ul of 1M acrylamide, 25 ul of tributylphoshene and incubation for 90 mins with intermittent mixing. After incubation, 10 ul of 1M DTT was added and the tubes were spun at 20,000 g at 20 deg C. for 10 minutes and transferred the supernatant to labeled Amicon Ultra centrifugal filter units with a 10 k cut off (Millipore catalog #UFC 801024). The samples were spun for 15 minutes at 2500 g in 2 intervals. The conductivity was measured for Chaps alone as well as the samples using a conductivity meter. If the conductivity of samples is high, then 1 ml of chaps was added for buffer exchange and spun again at 2500 g until the volume was down to 250 ul. […]
The samples were processed as per standard protocols as described above and the amount of protein in each of the samples was determined by Bradford assay. […]

ATP Citrate Lyase (ACL) = experiment: Western blot, ATP Citrate Lyase levels; assay type: cell-based, human; details: for ATP Citrate Lysase Normalized Intensity as % of control: glucose 5g, 48 h
Method: as §1
After transfer each of the blots was placed in between 2 Whatman Filter papers and dried for 15-20 minutes. After drying the blots were labeled with the date, the type of samples and either blot 1 or blot 2 using a HB pencil. The molecular weight markers were outlined with the pencil and with single lines for the blue and a doublet for the colored markers. The blots were activated with methanol for 5 seconds, washed with water for 5 minutes, and TBST for 15 minutes. The blots were blocked for 1 hour with 5% blocking reagent in TBS-T at room temperature and then washed 3 times with TBS-T (1X−15′; 2X5′ each). Blot 1 was probed with the primary antibody for IDH1 (Cell Signaling #3997) in TBST with 5% BSA (at 1:1000 dilutions) and blot 2 with the rabbit polyclonal antibody for ATP Citrate Lyase in 5% BSA (Cell Signaling #4332) at 1:1000 dilution by incubation overnight at 4 deg C. with shaking. After the overnight incubation with primary antibodies, the blots were washed 3 times with TBS-T (1X−15′; 2X5′ each) and probed with the secondary antibody (antirabbit; 1:10,000 dilution) for 1 h on the orbital tilting shaker at room temperature. After 1 h of incubation with secondary antibodies, the blots were washed 3 times with TBS-T (1X−15′; 2X5′ each) and then incubated with ECF reagent for 5 mins and then each blot scanned with 5100 Fuji Laser scanner at 25 uM resolution, 16 bit, green laser, at 400V and at 500 V.
The samples were processed and run on a 4-12% Bis-Tris Novex NuPAGE gel as described above. The gels were run, transferred and stained essentially as described above.
The Isocitrate dehydrogenase blot was stripped by incubating for 30 minutes with methanol, followed by two 10 minute washes with TBS-T, then 30 minutes of incubation with stripping buffer at 50 deg C., and followed by two washes with 100 ml or more of TBS-T for 30′ each. The blot was scanned in laser scanner to check for complete stripping. The blot was activated with methanol for 5 seconds, washed with water for 5 minutes, and TBST for 15 minutes. The blot was blocked for 1 hour with 5% blocking reagent in TBS-T at room temperature and then washed 3 times with TBS-T (1X−15′; 2X5′ each). This was then probed with the rabbit polyclonal antibody for ATP Citrate Lyase in 5% BSA (Cell Signaling #4332) at 1:1000 dilution overnight at 4 deg C. with shaking. After the overnight incubation with primary antibody for ATP Citrate Lyase, the membrane was washed 3 times with TBS-T (1X−15′; 2X5′ each) and probed with the secondary antibody (antirabbit; 1:10,000 dilution) for 1 h on the orbital tilting shaker at room temperature. After 1 h of incubation with secondary antibodies, the blot was washed 3 times with TBS-T (1X−15′; 2X5′ each) and then incubated with ECF reagent for 5 minutes and then each blot scanned with 5100 Fuji Laser scanner at 25 uM resolution, 16 bit, green laser, at 400V and at 500 V.
In this experiment (western blot experiment 3), and in all of the experiments described below in this Example (i.e., western blot experiments 4 through 9), the cells were additionally treated with either 5 mM glucose (“5G”) or 22 mM glucose (“22G”). The samples derived from the cells were processed and run on a 4-12% Bis-Tris Novex NuPAGE gel as described above. The gels were run, transferred and stained essentially as described above.
The levels of IDH1, ATP citrate lyase and actin levels were determined by probing the blots with primary antibodies for IDH1, ATP citrate lyase and actin, essentially as described above.

[3] = rats; Bhagavan et al.; cited from earlier work

COC1=C(OC)C(=O)C(C/C=C(\C)CC/C=C(\C)CC/C=C(\C)CC/C=C(\C)CC/C=C(\C)CC/C=C(\C)CC/C=C(\C)CC/C=C(\C)CC/C=C(\C)CCC=C(C)C)=C(C)C1=O [Q10, Coenzyme Q10]
PPARGC1A regulation ([1]; HepG2, 48 hours): normalized or were slightly upregulated
PRKAA1 regulation ([1]; HepG2, 48 hours): normalized or were slightly upregulated
genes regulated in the Diabetes Arrays ([1]; HepG2 cells, genes: PPARGC1A, PRKAA1, SNAP25): List of genes regulated in the Diabetes Arrays when HepG2 cells
expression of IDH1 ([2]; HDFa, nFIB, HASMC): did not demonstrate significant changes in the expression pattern
expression of IDH1 ([2]; cancer cell lines MCF-7, SKMEL28, HepG2, PaCa-2): increased expression of IDH1
ATP Citrate Lysase Normalized Intensity as % of control (ATP Citrate Lyase (ACL); HepG2, 50 uM): 85 % of control
ATP Citrate Lysase Normalized Intensity as % of control (ATP Citrate Lyase (ACL); HepG2, 100 uM): 79 % of control
ATP Citrate Lysase Normalized Intensity as % of control (ATP Citrate Lyase (ACL); PACA2, 50 uM): 68 % of control
ATP Citrate Lysase Normalized Intensity as % of control (ATP Citrate Lyase (ACL); PACA2, 100 uM): 42 % of control
expression of ACL (ATP Citrate Lyase (ACL); cancer cells): dose-dependent decrease in the expression of ACL enzymes
expression of ACL (ATP Citrate Lyase (ACL); normal cells): trend towards increased expression of ACL
orally-administered CoQ10 absorbed [3]: 2-3%
